Test results as given in US20220273660A1, “MEK INHIBITOR FOR TREATMENT OF STROKE” (EDVINCE AB, priority 2019, published 2022).
“Also recorded” adds a separate entry of the source.

What was measured:
[1] = test system: rat subarachnoid haemorrhage model; assay: Rotating pole test after SAH, intrathecal treatment; type: in vivo; conditions: SAH + i.t. treatment
Experimental: The intrathecal (i.t.) treatment volumes were estimated for a cerebrospinal fluid (CSF) volume of approximately 90 μL (21) and the total dose was administered as three treatments (4 hours, 10 hours and 24 hours) through the PinPort in the ICP catheter placed in the cisterna magna during the surgical procedure. The first and third injections were given under fixation of the rat. Since the treatment 10 hours post-surgery was administered by a single researcher, the rats were briefly anaesthetised with isoflurane 3.5-4% (maintained at 1.75-2%) in atmospheric air/O2 (70%/30%) using a facemask, to prevent sudden movements of the rat. […]
Gross sensorimotor function was evaluated using a rotating pole test, including a baseline evaluation on the day before induction of SAH. Briefly, movement across a 10-rpm rotating pole (45 mm diameter, 150 cm length) was evaluated with a cage at the end that contain the rat's own bedding material (“smells like home”). Rat performance was scored according to the following definitions: Low, the animal is unable to cross the pole without falling off; High, the animal can traverse the entire pole without falling off. […] Pre-SAH and on day 1 and 2 after surgery, each animal was scored twice for left and right rotation respectively, i.e. 4 counts per animal. […]

[2] = test system: rat subarachnoid haemorrhage model; assay: Rotating pole test after SAH, intraperitoneal treatment; type: in vivo; conditions: SAH + i.p. treatment, 48 hours post-SAH
Experimental: Gross sensorimotor function was evaluated using a rotating pole test, including a baseline evaluation on the day before induction of SAH. Briefly, movement across a 10-rpm rotating pole (45 mm diameter, 150 cm length) was evaluated with a cage at the end that contain the rat's own bedding material (“smells like home”). Rat performance was scored according to the following definitions: Low, the animal is unable to cross the pole without falling off; High, the animal can traverse the entire pole without falling off. All animals were trained to traverse the pole before surgery. Pre-SAH and on day 1 and 2 after surgery, each animal was scored twice for left and right rotation respectively, i.e. 4 counts per animal. Animals were graded by personnel blinded to the experimental groups of the animals. Data are shown percentage as % high score count/total score count.
For the intraperitoneal treatment (i.p) the compound was dissolved in 10% cremophor EL (Kolliphor EL) and 10% PEG400 in NaCl, which also served as vehicle. The total dose was administered as two treatments (6 hours and 24 hours). Animals were given 2.5 ml isotonic saline s.c. to avoid dehydration, immediately after surgery and in conjunction with the treatments.

rat basilar arteries = assay: 48 h organ culture of basilar artery, endothelium function / vasodilation (carbachol, SNP, CGRP); type: cell-based; conditions: 1 μM inhibitor
Experimental: Rats were sedated with O2/CO2 (30/70%) and sacrificed by decapitation. […] The basilar artery (BA) was carefully dissected from the brain in a physiological buffer solution followed by either OC (naïve animals) or directly mounted in a wire myograph (arteries from rats which has undergone surgical procedures). Segments were incubated for 48 hours at 37° C. in humidified 5% CO2/O2 in DMEM supplemented with streptomycin and penicillin with inhibitors or vehicle (DMSO). Culture media was changed after 24 hours.
For contractility measurements, both incubated BAs (ex vivo) and BAs after surgical procedure (in vivo) were cut into segments and mounted on a pair of metal wires (40 μm) in a myograph bath. The arteries from OC were mounted the same way after 48 hours in media. One wire was attached to a micro-meter screw which allows for fine adjustments of the distance between the wires, controlling the vascular tone.
The arterial segments were exposed two or three times with 60 mM K^+, by exchanging the buffer with a 60 mM K^+ buffer solution. To maintain equal osmolarity, a proportional amount of Na^+ had been removed from the buffer. An absolute cut-off was set at 2.0 mN K^+max for inclusion of arterial segments from rats that underwent the surgical procedure. Endothelium function was evaluated with the addition of 5-HT (3.10^−7 M) followed by carbachol (10^−5 M). For arteries from the OC the protocol was as followed: first a cumulative concentration-response curve to sarafotoxin 6C (S6c, 10^−14-10^−7 M), followed by a concentration-response curve to endothelin-1 (ET-1, 10^−14-10^−7 M). At peak ET-1 (10^−7 M), the buffer was changed to a Ca^2+-free buffer containing 10^−7 M ET-1 and nimodipine (L-type of voltage dependent Ca^2+ channel entry blocker, 10^−7 M). […] When vasodilation was investigated arteries was precontracted with U46619 (1.10^−7-3.10^−7 M) or K^+ (41 mM) and cumulative concentration-response curves was performed by adding calcitonin gene-related peptide (CGRP, 10^−12-10^−7 M), carbachol (10^−10-10^−5 M) or SNP (10^−11-10^−4 M).

Question: With CC(=O)Nc1cccc(-n2c(=O)n(C3CC3)c(=O)c3c(Nc4ccc(I)cc4F)n(C)c(=O)c(C)c32)c1 [trametinib] as the molecule, how does the “neurological assessment scores (rotating pole test)” value [1] read?
Answer: Improved neurological assessment scores

Question: And the “rotating pole Score48 h (% high score count/total score count)” value ([1]; 48 hours post-SAH, 10 rpm)?
Answer: 96%

Question: What about the “rotating pole Score48 h (% high score count/total score count)” value [2] of the same molecule?
Answer: 100%

Question: What about the “Emax following NO donor sodium nitroprusside (SNP)” value (rat basilar arteries; 48 h OC) of the same molecule?
Answer: significant differences in the Emax

Question: What about the “response to CGRP” value (rat basilar arteries; 48 h OC) of the same molecule?
Answer: No differences

Question: And the “vasodilation in response to carbachol (10^-10-10^-5 M)” value (rat basilar arteries; 48 h OC, precontracted with U46619 or K+)?
Answer: improved vasodilation

Question: What about the “endothelium function (10-5 M carbachol on arteries precontracted with 5-HT) vs DMSO” value (rat basilar arteries; 48 h organ culture) of the same molecule?
Answer: significant better endothelium function; also recorded: significant increase
